In US20210361224A1, “BIOLOGICAL GAS (VOCs) MEASURMENT DEVICE” (National University Corporation Tokyo Medical and Dental …, priority 2017, published 2021):
Where two headings read alike, the source gives them in different places.

Columns and labels:
[1] = compared with ethanol in exhaled breath, test subject ingested 0.4 g/kg of body weight of ethanol by drinking
[2] = palm of hand; 0.4 g of ethanol per kilogram of body weight orally ingested; measured 10 to 40 minutes after drinking

In the case of `CCO` [ethanol], the “delay until the amount of ethanol contained in skin gas peaks” value ([1]; collector attached to back of hand) was “approximately 23 minutes”, the “delay until the amount of ethanol contained in skin gas peaks” value ([1]; collector attached to wrist on the palm side) was “approximately 18 minutes” and the “time after drinking at which concentration of ethanol released from the skin reached a peak value” [2] was 32 min.
